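Test compounds were applied to cells in 96-well plates for 48 hours at 5 doses. GI50: concentration for 50% inhibition of growth.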 Calls of active or inactive are those of the source. Cut-off read from the data, not from the text of the source: active = GI50 up to about 1.1 µM and inactive = higher.
What was measured:
Experiment in all cases: NCI tumour cell line growth inhibition, 48 h
[1] = tested on: SNB-75
[2] = tested on: SF-295
[3] = tested on: MCF7
[4] = tested on: NCI-H522
[5] = tested on: Malme-3M
[6] = tested on: SR
[7] = tested on: HCT-15
[8] = tested on: OVCAR-8
[9] = tested on: BT-549
[10] = tested on: SN12C
[11] = tested on: DU-145
[12] = tested on: HL-60
[13] = tested on: UACC-257
[14] = tested on: M14
[15] = tested on: TK-10
[16] = tested on: NCI-H226
[17] = tested on: A498
[18] = tested on: MOLT-4
[19] = tested on: RXF 393
[20] = tested on: LOX IMVI

SMILES | GI50 [1] | GI50 [2] | GI50 [3] | GI50 [4] | GI50 [5] | GI50 [6] | GI50 [7] | GI50 [8] | GI50 [9] | GI50 [10] | GI50 [11] | GI50 [12] | GI50 [13] | GI50 [14] | GI50 [15] | GI50 [16] | GI50 [17] | GI50 [18] | GI50 [19] | GI50 [20]
Cn1c(C(C)(C)OC(=O)Oc2ccccc2)cnc1[N+](=O)[O-] | > 100 µM (inactive) | > 100 µM (inactive) | 63 µM (inactive) | 70.8 µM (inactive) | 32.3 µM (inactive) | 16.8 µM (inactive) | > 100 µM | 70.6 µM (inactive) | > 100 µM (inactive) | 19.7 µM (inactive) | > 100 µM (inactive) | 36.5 µM (inactive) | 36 µM (inactive) | > 100 µM (inactive) | > 100 µM (inactive) | 36.6 µM (inactive) | > 100 µM (inactive) | 16.7 µM (inactive) | > 100 µM (inactive) | 
C=C1CCC2CC1C(C(=O)c1c[nH]c3ccccc13)=NC2(C)C (stereo not given) | > 100 µM (inactive) |  | > 100 µM (inactive) | > 100 µM (inactive) | > 100 µM (inactive) | > 100 µM (inactive) | > 100 µM | > 100 µM (inactive) | > 100 µM (inactive) | > 100 µM (inactive) | > 100 µM (inactive) | > 100 µM (inactive) | > 100 µM (inactive) | > 100 µM (inactive) |  | > 100 µM (inactive) | > 100 µM (inactive) | > 100 µM (inactive) |  | > 100 µM (inactive)
Oc1ccc(Cc2cc(Cc3ccc(O)cc3)cc(Cc3ccc(O)cc3)c2)cc1 | > 50 µM (inactive) | > 50 µM (inactive) | > 50 µM (inactive) | > 50 µM (inactive) | > 50 µM (inactive) | > 50 µM (inactive) | > 50 µM | > 50 µM (inactive) | > 50 µM (inactive) | > 50 µM (inactive) | > 50 µM (inactive) | > 50 µM (inactive) | > 50 µM (inactive) | > 50 µM (inactive) | > 50 µM (inactive) | > 50 µM (inactive) | > 50 µM (inactive) | > 50 µM (inactive) |  | > 50 µM (inactive)
N#CC(C#N)=C1CCCS(=O)(=O)c2ccccc21 | > 100 µM (inactive) | > 100 µM (inactive) | > 100 µM (inactive) |  |  | > 100 µM (inactive) | > 100 µM | > 100 µM (inactive) | > 100 µM (inactive) | > 100 µM (inactive) | > 100 µM (inactive) | > 100 µM (inactive) | > 100 µM (inactive) | > 100 µM (inactive) | > 100 µM (inactive) | > 100 µM (inactive) | 56.4 µM (inactive) | > 100 µM (inactive) | > 100 µM (inactive) | > 100 µM (inactive)
COC(=O)C1CC(C=[N+](C)C)=C(SC)N1C(=O)OCc1ccccc1 (stereo not given) | > 100 µM (inactive) | > 100 µM (inactive) | 95.9 µM (inactive) | > 100 µM (inactive) | > 100 µM (inactive) | > 100 µM (inactive) | > 100 µM | > 100 µM (inactive) | > 100 µM (inactive) |  | > 100 µM (inactive) |  | > 100 µM (inactive) | > 100 µM (inactive) | > 100 µM (inactive) |  | > 100 µM (inactive) | > 100 µM (inactive) | > 100 µM (inactive) | 
COc1cc(COC(=O)N(CC(=O)O)c2ccccc2)c([N+](=O)[O-])cc1OC | > 100 µM (inactive) | > 100 µM (inactive) | > 100 µM (inactive) |  | > 100 µM (inactive) | > 100 µM (inactive) | > 100 µM | > 100 µM (inactive) | > 100 µM (inactive) | > 100 µM (inactive) | > 100 µM (inactive) | > 100 µM (inactive) | > 100 µM (inactive) | > 100 µM (inactive) | > 100 µM (inactive) | > 100 µM (inactive) | 62.7 µM (inactive) | > 100 µM (inactive) | > 100 µM (inactive) | 
O=C(O)CN1CCN(CC(=O)N2CCN(C(=O)OCc3ccccc3)CC2)CCN(CC(=O)O)CCN(CC(=O)N2CCN(C(=O)OCc3ccccc3)CC2)CC1 | > 100 µM (inactive) | > 100 µM (inactive) | > 100 µM (inactive) | > 100 µM (inactive) | > 100 µM (inactive) | > 100 µM (inactive) | > 100 µM | > 100 µM (inactive) | > 100 µM (inactive) | > 100 µM (inactive) | > 100 µM (inactive) | > 100 µM (inactive) | > 100 µM (inactive) | > 100 µM (inactive) | > 100 µM (inactive) | > 100 µM (inactive) | > 100 µM (inactive) | > 100 µM (inactive) |  | > 100 µM (inactive)
Cc1cc(N(CCC#N)CCC#N)ccc1C(/N=N\c1ccc([N+](=O)[O-])cc1)=N\NC(=O)c1cc(Cl)ccc1O | > 100 µM (inactive) | 29.1 µM (inactive) | 22.6 µM (inactive) | 9.35 µM (inactive) | 28.1 µM (inactive) | 24.3 µM (inactive) | 29.6 µM | 19.8 µM (inactive) | 34.8 µM (inactive) | 22.6 µM (inactive) | 46.3 µM (inactive) |  | 34 µM (inactive) | 42 µM (inactive) | 46.1 µM (inactive) | 25.5 µM (inactive) | 26.7 µM (inactive) | 20.3 µM (inactive) | 28.6 µM (inactive) | 
N#Cc1c(Cl)c(C=O)c(=O)n2c1[nH]c1ccccc12 | 42.1 µM (inactive) | 35.9 µM (inactive) | 33.3 µM (inactive) | 44 µM (inactive) | 26.4 µM (inactive) | 10 µM (inactive) | 57.5 µM | 42.1 µM (inactive) | 36.1 µM (inactive) | 61.8 µM (inactive) | 50.4 µM (inactive) | 42.6 µM (inactive) | 56.8 µM (inactive) | 28.4 µM (inactive) | > 100 µM (inactive) | 24.7 µM (inactive) | 31.7 µM (inactive) | 29 µM (inactive) |  | 33.7 µM (inactive)
CCOC(=O)C(NC(=O)C(CCCCNP(=O)(OCC)OCC)NC(=O)C(C)NC(C)=O)C(C)C (stereo not given) | > 100 µM (inactive) | > 100 µM (inactive) | > 100 µM (inactive) |  | > 100 µM (inactive) | > 100 µM (inactive) | > 100 µM | > 100 µM (inactive) | > 100 µM (inactive) | > 100 µM (inactive) | > 100 µM (inactive) | > 100 µM (inactive) | > 100 µM (inactive) | > 100 µM (inactive) | > 100 µM (inactive) | > 100 µM (inactive) | 80.7 µM (inactive) | > 100 µM (inactive) | > 100 µM (inactive) | > 100 µM (inactive)
O=C1NC(=O)/C(=C/c2ccc(S(=O)(=O)N/N=C/c3ccc(Cl)cc3)cc2)N1 | > 100 µM (inactive) | > 100 µM (inactive) | > 100 µM (inactive) |  | > 100 µM (inactive) | 61.2 µM (inactive) | > 100 µM | > 100 µM (inactive) | > 100 µM (inactive) | > 100 µM (inactive) | > 100 µM (inactive) | 72.9 µM (inactive) | > 100 µM (inactive) | > 100 µM (inactive) | > 100 µM (inactive) | > 100 µM (inactive) | 23.6 µM (inactive) | > 100 µM (inactive) | > 100 µM (inactive) | > 100 µM (inactive)
NC(Cc1ccc(OCc2ccccc2)cn1)C(=O)OCc1ccccc1 (stereo not given) |  | > 100 µM (inactive) | > 100 µM (inactive) | > 100 µM (inactive) | > 100 µM (inactive) | > 100 µM (inactive) | > 100 µM | > 100 µM (inactive) | > 100 µM (inactive) | > 100 µM (inactive) | > 100 µM (inactive) | > 100 µM (inactive) | > 100 µM (inactive) |  | > 100 µM (inactive) | > 100 µM (inactive) | > 100 µM (inactive) |  | > 100 µM (inactive) | > 100 µM (inactive)
O=C1c2ccccc2C(=O)N1NC1=NCCN1 |  | > 100 µM (inactive) | > 100 µM (inactive) | > 100 µM (inactive) | > 100 µM (inactive) | > 100 µM (inactive) | > 100 µM | > 100 µM (inactive) | > 100 µM (inactive) | > 100 µM (inactive) | > 100 µM (inactive) | > 100 µM (inactive) | > 100 µM (inactive) | > 100 µM (inactive) | > 100 µM (inactive) | > 100 µM (inactive) | > 100 µM (inactive) | > 100 µM (inactive) | > 100 µM (inactive) | > 100 µM (inactive)
CC1OC1P(=O)(O)O (stereo not given) | > 100 µM (inactive) | > 100 µM (inactive) | > 100 µM (inactive) |  |  | > 100 µM (inactive) | > 100 µM | > 100 µM (inactive) | > 100 µM (inactive) | > 100 µM (inactive) | > 100 µM (inactive) |  | > 100 µM (inactive) |  | > 100 µM (inactive) |  | > 100 µM (inactive) | > 100 µM (inactive) | > 100 µM (inactive) | > 100 µM (inactive)
Cc1c(O)c(OC2OC(CO)C(O)C(O)C2O)cc2c1CC[C@@H]1C2(C)C(=O)C[C@]2(C)[C@@H]([C@@](C)(O)C(=O)CCC(C)(C)O)[C@H](O)C[C@@]12C (stereo not given in full) | > 100 µM (inactive) | > 100 µM (inactive) | > 100 µM (inactive) | > 100 µM (inactive) | > 100 µM (inactive) | > 100 µM (inactive) | > 100 µM | > 100 µM (inactive) | > 100 µM (inactive) | > 100 µM (inactive) | > 100 µM (inactive) |  | > 100 µM (inactive) | > 100 µM (inactive) | > 100 µM (inactive) | > 100 µM (inactive) | > 100 µM (inactive) | > 100 µM (inactive) | > 100 µM (inactive) | 

Source: ChEMBL document CHEMBL1201862, “PubChem BioAssay data set” (2004)
